# Tested on: serum uric acid
# Test: Serum uric acid during 28-day once-daily oral dosing, placebo-controlled study in 48 subjects (Example 34)
# Format: in vivo, human
# Method: In another study, 48 subjects were divided into four groups, A, B, C and D, and administered the noted amount of the compound of Example 3. Each group was composed of 12 subjects of whom 9 received the compound and 3 received placebo. The non-placebo members of group A received 50 mg of compound, administered orally once a day for 28 days as a single 50 mg tablet. The non-placebo members of group B received 200 mg of compound administered orally once a day for 28 days as a single 200 mg tablet. The non-placebo members of group C received 500 mg of compound administered orally once a day for 28 days as two 50 mg tablets and two 200 mg tablets. The non-placebo members of group D received 800 mg of compound administered orally once a day for 28 days as four 200 mg tablets. The 3 placebo members of each group, received an amount of placebo, as a tablet, equivalent to the amount of test compound—50 mg placebo for group A, 200 mg placebo for group B, 500 mg placebo for group C and 800 mg placebo for group D. Each subject received a single dose of either compound or placebo for 28 days. The subjects were confined at the clinical site beginning the day before dose administration until 72 hours after the final dose administration on Day 28 and returned for an outpatient visit on Day 35.
# Uric acid levels were measured prior to beginning the study (screening), on the day immediately prior to commencement of the study (day-1), and then as noted in the table. Hours indicates the time since the last dose was administered. For example, Day 7, 0 hour indicates the time the serum uric acid level at the time the dose was administered and Day 7, 2 hour indicates the uric acid level two hours after the adminstration that day. Further, the Day 30, 60 hour level is the serum uric acid level measured 60 hours (on Day 30) after the last dose was administered on Day 28. The uric acid levels are presented in mg/dL as a mean of all subjects in each group.
compound,measurement,setting,value
"O=C(O)Cn1cc(Cc2nc3c(F)c(F)cc(F)c3s2)c2ccccc21 [Example 3, 3-(4,5,7-Trifluorobenzothiazol-2-yl)methyl-indole-N-acetic Acid]",Uric Acid Level (mean of all subjects in each group),"group B 200 mg orally once a day, Day 7 24 Hour",2.70 mg/dL
same,Uric Acid Level (mean of all subjects in each group),"group B 200 mg orally once a day, Day 14 0 Hour",2.87 mg/dL
same,Uric Acid Level (mean of all subjects in each group),"group C 500 mg orally once a day, Day 1 0 Hour",5.16 mg/dL
same,Uric Acid Level (mean of all subjects in each group),"group C 500 mg orally once a day, Day 1 0.5 Hour",5.08 mg/dL
same,Uric Acid Level (mean of all subjects in each group),"group C 500 mg orally once a day, Day 1 1 Hour",4.81 mg/dL
same,Uric Acid Level (mean of all subjects in each group),"group C 500 mg orally once a day, Day 1 2 Hour",4.27 mg/dL
same,Uric Acid Level (mean of all subjects in each group),"group C 500 mg orally once a day, Day 1 3 Hour",3.84 mg/dL
same,Uric Acid Level (mean of all subjects in each group),"group C 500 mg orally once a day, Day 1 4 Hour",3.54 mg/dL
same,Uric Acid Level (mean of all subjects in each group),"group C 500 mg orally once a day, Day 1 6 Hour",3.30 mg/dL
same,Uric Acid Level (mean of all subjects in each group),"group C 500 mg orally once a day, Day 1 8 Hour",2.82 mg/dL
same,Uric Acid Level (mean of all subjects in each group),"group C 500 mg orally once a day, Day 1 10 Hour",2.59 mg/dL
same,Uric Acid Level (mean of all subjects in each group),"group C 500 mg orally once a day, Day 1 12 Hour",2.56 mg/dL
same,Uric Acid Level (mean of all subjects in each group),"group C 500 mg orally once a day, Day 1 16 Hour",2.36 mg/dL
same,Uric Acid Level (mean of all subjects in each group),"group C 500 mg orally once a day, Day 1 24 Hour",2.74 mg/dL
same,Uric Acid Level (mean of all subjects in each group),"group C 500 mg orally once a day, Day 3",2.21 mg/dL
same,Uric Acid Level (mean of all subjects in each group),"group C 500 mg orally once a day, Day 7 0 Hour",2.17 mg/dL
same,Uric Acid Level (mean of all subjects in each group),"group C 500 mg orally once a day, Day 7 0.5 Hour",2.21 mg/dL
same,Uric Acid Level (mean of all subjects in each group),"group C 500 mg orally once a day, Day 7 1 Hour",2.16 mg/dL
same,Uric Acid Level (mean of all subjects in each group),"group C 500 mg orally once a day, Day 7 2 Hour",2.04 mg/dL
same,Uric Acid Level (mean of all subjects in each group),"group C 500 mg orally once a day, Day 7 3 Hour",1.90 mg/dL
same,Uric Acid Level (mean of all subjects in each group),"group C 500 mg orally once a day, Day 7 4 Hour",1.88 mg/dL
same,Uric Acid Level (mean of all subjects in each group),"group C 500 mg orally once a day, Day 7 6 Hour",2.19 mg/dL
same,Uric Acid Level (mean of all subjects in each group),"group C 500 mg orally once a day, Day 7 8 Hour",2.10 mg/dL
same,Uric Acid Level (mean of all subjects in each group),"group C 500 mg orally once a day, Day 7 10 Hour",2.08 mg/dL
same,Uric Acid Level (mean of all subjects in each group),"group C 500 mg orally once a day, Day 7 12 Hour",1.92 mg/dL
same,Uric Acid Level (mean of all subjects in each group),"group C 500 mg orally once a day, Day 7 16 Hour",1.74 mg/dL
same,Uric Acid Level (mean of all subjects in each group),"group C 500 mg orally once a day, Day 7 24 Hour",2.23 mg/dL
same,Uric Acid Level (mean of all subjects in each group),"group C 500 mg orally once a day, Day-1 (before dosing)",5.10 mg/dL
same,Uric Acid Level (mean of all subjects in each group),"group C 500 mg orally once a day, Screening (before dosing)",5.28 mg/dL
same,Uric Acid Level (mean of all subjects in each group),"group D 800 mg orally once a day, Day 1 0 Hour",5.64 mg/dL
same,Uric Acid Level (mean of all subjects in each group),"group D 800 mg orally once a day, Day 1 0.5 Hour",5.57 mg/dL
same,Uric Acid Level (mean of all subjects in each group),"group D 800 mg orally once a day, Day 1 1 Hour",5.12 mg/dL
same,Uric Acid Level (mean of all subjects in each group),"group D 800 mg orally once a day, Day 1 2 Hour",4.46 mg/dL
same,Uric Acid Level (mean of all subjects in each group),"group D 800 mg orally once a day, Day 1 3 Hour",3.97 mg/dL
same,Uric Acid Level (mean of all subjects in each group),"group D 800 mg orally once a day, Day 1 4 Hour",3.66 mg/dL
same,Uric Acid Level (mean of all subjects in each group),"group D 800 mg orally once a day, Day 1 6 Hour",3.37 mg/dL
same,Uric Acid Level (mean of all subjects in each group),"group D 800 mg orally once a day, Day 1 8 Hour",2.81 mg/dL
same,Uric Acid Level (mean of all subjects in each group),"group D 800 mg orally once a day, Day 1 10 Hour",2.49 mg/dL
same,Uric Acid Level (mean of all subjects in each group),"group D 800 mg orally once a day, Day 1 12 Hour",2.42 mg/dL
same,Uric Acid Level (mean of all subjects in each group),"group D 800 mg orally once a day, Day 1 16 Hour",2.13 mg/dL
same,Uric Acid Level (mean of all subjects in each group),"group D 800 mg orally once a day, Day 1 24 Hour",2.64 mg/dL
same,Uric Acid Level (mean of all subjects in each group),"group D 800 mg orally once a day, Day 3",2.19 mg/dL
same,Uric Acid Level (mean of all subjects in each group),"group D 800 mg orally once a day, Day 7 0 Hour",2.18 mg/dL
same,Uric Acid Level (mean of all subjects in each group),"group D 800 mg orally once a day, Day 7 0.5 Hour",2.10 mg/dL
same,Uric Acid Level (mean of all subjects in each group),"group D 800 mg orally once a day, Day 7 1 Hour",2.07 mg/dL
same,Uric Acid Level (mean of all subjects in each group),"group D 800 mg orally once a day, Day 7 2 Hour",1.98 mg/dL
same,Uric Acid Level (mean of all subjects in each group),"group D 800 mg orally once a day, Day 7 3 Hour",1.90 mg/dL
same,Uric Acid Level (mean of all subjects in each group),"group D 800 mg orally once a day, Day 7 4 Hour",1.90 mg/dL
same,Uric Acid Level (mean of all subjects in each group),"group D 800 mg orally once a day, Day 7 6 Hour",2.23 mg/dL
same,Uric Acid Level (mean of all subjects in each group),"group D 800 mg orally once a day, Day 7 8 Hour",2.21 mg/dL
same,Uric Acid Level (mean of all subjects in each group),"group D 800 mg orally once a day, Day 7 10 Hour",2.20 mg/dL
same,Uric Acid Level (mean of all subjects in each group),"group D 800 mg orally once a day, Day 7 12 Hour",2.10 mg/dL
same,Uric Acid Level (mean of all subjects in each group),"group D 800 mg orally once a day, Day 7 16 Hour",1.78 mg/dL
same,Uric Acid Level (mean of all subjects in each group),"group D 800 mg orally once a day, Day 7 24 Hour",2.26 mg/dL
same,Uric Acid Level (mean of all subjects in each group),"group D 800 mg orally once a day, Day-1 (before dosing)",5.54 mg/dL
same,Uric Acid Level (mean of all subjects in each group),"group D 800 mg orally once a day, Screening (before dosing)",5.68 mg/dL
